For test [1], the system named is testes / spermatogenesis in Swiss (CD-1) mice. Conditions: in words, Cook et al., cited from earlier work.
The target in test [2] is testes receptor (testis membranes). Nature of the test: Displacement of [125I]074(d) from rat testis membranes (Scatchard / displacement binding assay). Here is the method:
• 1. […] Homogenize the tissue for 20 sec with a Polytron tissue homogenizer (probe no. PTA 10S, 12 mm) at a medium setting (4-6 on a rheostat scale of 10) or until a smooth suspension is obtained. • 4. Pour the homogenate into a chilled 50 ml, centrifuge tube, and centrifuge at 0-4° C. and 500×g ( 1540 rpm in an […]) for 10 min. • 5. Decant the supernatant into clean 10 ml, centrifuge tubes, using multiple tubes as necessary. • 6. Centrifuge the decanted supernatant at 0-4° C. and 17000×g ( 11900 rpm in a Sorvall SS-34 rotor) for 12 min. • 7. Decant and discard the supernatants. […] Perform a total protein assay on resuspended pellet. The […] assay measures the binding of a radiolabeled test compound, over a wide concentration range, to the membrane receptors in both the absence (total binding) and presence (non-specific binding) of non-radioactive compound. Calculation of the resulting assay data yields the Kd of the test compound. • 1. Label 1.2 mL polypropylene tubes in duplicate for each [^125I]074(d) standard total binding and non-specific binding (NSB) determination and place in 96-well matrix test tube racks. Label liquid scintillation vials for free radioactivity determination. • 2. Prepare dilutions of the [^125I]074(d) ranging in concentration from approximately 1 to 200 nM or other desired concentration range. Prepare cold drug at a concentration of at least 100 times the level of the highest level of radiolabeled standard (e.g. 20-40 µM) for NSB determination. • 3. Set up the assay as follows: • 4. […] Add 0.1 mL (200 μg) to each assay tube. Vortex to mix. • 5. Incubate assay at 25° C. for 2 hours while gently shaking at 30-35 rpm (e.g. Precision Scientific Reciprocal Shaker or equivalent). • 6. […] Near the end of the incubation period, place a blank wash plate in the cell harvester (model MPXR-96T, Brandel Scientific, Gaithersburg, Md.). Place cold wash buffer in the reservoir supplying the harvester. Prime the harvester with buffer. Replace the dummy filter plate with the pre-soaked plate. • 8. At the end of the incubation period, remove tubes from incubator. Place the harvester prongs into the tubes, and vacuum to deposit the reaction mixture onto the filter plate. Rinse the reaction tubes 3-4 times with cold buffer and vacuum through the filter plate. • 9. Remove the filter plate from the harvester and allow it to dry thoroughly, using a warm oven if desired. • 10. Seal the bottom of the plate. Insert the plate into the cocktail dispenser and add cocktail (Micro-Scint 20, Perkin Elmer LAS, Shelton, Conn.) to each well • 11. Seal the top of the plate. Allow the plate to sit at least one hour or overnight and then count. • 1. For each level of standard, determine the CP Ms of free (essentially equivalent to total radioactivity added), total bound, and non-specific bound (NSB) compound. • 2. Subtract the NSB CPMs from the corresponding total CP Ms for each standard level to determine specific bound for each standard level. • 3. Convert the free, specific bound and non-specific bound CPMs to a mass basis (e.g. pM) using the specific activity, counter efficiency for the isotope ( 70% for ^125I in a Packard Model 1900TR. Liquid Scintillation Analyzer) and assay dilution factor of the labeled material. • 4. For each standard level, divide the level of compound specifically bound by the corresponding free amount added. • 5. For […] analysis, perform a linear regression analysis where x=specific bound compound and y=ratio of corresponding specific bound/free compound added. • 6. The Kd=-1/slope of the line generated. • 7. For illustrative purposes, a binding isotherm graph can be generated where x=free compound and y=total bound, non-specific bound and specific bound compound. The displacement assay measures the ability of a test drug, over a wide concentration range, to compete with and displace a constant amount of a known radiolabeled drug bound to the testes receptor. Calculation of the resulting assay data yields the Ki of the test drug. • 1. […]
Background: Loss of bound radioactivity is the signal in a displacement assay; it reports binding, not function.

In test [3] the test system is testes / spermatogenesis in Swiss (CD-1) mice. Nature of the test: Spermatogenic Index test: testes weight and spermatogenic index after a single oral dose. The class given is in vivo, mouse. The note with it: male CD-1 mice, mean ± SEM; for Spermatogenic Index: 72 h, scale 1 to 6, 5 to 6 normal, vehicle control 5.5 ± 0.16; for Testes Weight: killed 72 h later, vehicle control 204 ± 11.9. Here is the method:
The compounds of the invention were tested in mice for their effects on spermatogenesis three days after a single oral dose by the procedure described in Cook et al (J. Med. […] Compounds active in this test have been shown also to be anti-fertility compounds. Compounds were screened for antispermatogenic activity by dosing male mice on day 1 with a gavage dose of control vehicle, positive control (compound 1) or compound of the invention. At 72 h after dosing, animals were killed and the testes were excised, trimmed of fat, and weighed. One testis was examined histologically and rated for spermatogenic potential using the Spermatogenic Index [[…]. Noden, J. Cherry and […]. Reprod. […], 72, 277 (1984)], which is a semiquantitative estimate of the sperm producing ability of the testes. The index is based on histological appearance of the spermatogenic cells in the seminiferous tubules. A scale of 1 to 6 is used with 5 to 6 being the normal status. A second assessment was based on the weight of the testes. […] Compounds were given orally to 8-week old male CD-1 mice in a single dose. Seventy-two hours later the animals were killed and the testes weighed. One testis was subjected to histological analysis and scored according to the Spermatogenic Index (SI) of Fail (see Cook et ah, J. Med. […] RTI-4587-056(l), and a vehicle control group was also analyzed.

In a further test the test system is spermatogenesis. Conditions: oral administration to animals; cited from earlier work.
Test [4] has as its system testes / spermatogenesis in rats. Conditions: single oral dose of 30 mg/kg to rats, within 24 h; cited from earlier work.
Setting [5] is: average Ki, 25° C., 2 hours, for 074(d) the Ki is a Kd.
Setting [6] is: J. Med. Chem., 1997, 40, 2111-2112.

The structures appear in SMILES notation. Like-named read-outs stand apart in the source and are kept apart here.

One may read the Ki as a dissociation constant, usually derived from enzyme kinetics or from competition with a known ligand. A low value points to tighter binding. Take `CCN1CCC2C(C1)c1ccc(C)cc1C2c1ccc(C)cc1` (stereo not drawn) [RTI-4587-002(d)]: the “in vivo activity (antispermatogenic)” value in test [1] (J. Med. Chem., 1997, 40, 2111-2112, listed as -002(d)) is “bioactive”. Further, in test [2] (as stated in the text, listed as -002(d)), the affinity corresponds to a Ki of 6.1 µM.
`CCN1CCC2C(C1)c1ccc(C)cc1C2c1ccc(C)cc1` (stereo not drawn) [RTI-4587-002(l)]: in test [1] (J. Med. Chem., 1997, 40, 2111-2112, listed as -002(l)), the “in vivo activity (antispermatogenic)” value is “bioinactive”. Further, the inhibition constant (Ki) in test [2] (as stated in the text, listed as -002(l)) is 66 µM; in test [2] (setting [5]) it was 65.6 µM.
Turning to `CCN1CCC2C(C1)c1ccc(C)cc1C2c1ccc(C(=O)O)cc1` (stereo not drawn) [RTI-4587-054(d)], the inhibitory constant (Ki) in test [2] was ~0.54 µM; in test [2] (setting [5]), 0.54 µM.
Regarding `CCN1CCC2C(C1)c1ccc(C)cc1C2c1ccc(C(=O)O)cc1` (stereo not drawn) [RTI-4587-054(l)], in test [1] (setting [6]), the “in vivo activity (antispermatogenic)” value was “inactive”. Besides, the inhibitory constant (Ki) is ~330 µM in test [2] and 329 µM in test [2] (setting [5]).
In test [2] (setting [5]), `CCN1CCC2C(C1)c1ccc(C)cc1C2c1ccc(C(=O)OC)cc1` (stereo not drawn) [RTI-4587-056(d)] had a Ki of 207 µM.
In test [2] (setting [5]), `CCN1CC[C@H]2[C@H](c3ccc(C(=O)OC)cc3)c3cc(C)ccc3[C@H]2C1` [RTI-4587-056(l)] registered an inhibition constant Ki of 2.7 µM. Further, in test [3] (single oral dose 30 mg/kg, n=4), the “Spermatogenic Index” value stood at 3.69 ± 0.07 and the “Testes Weight” value worked out at 173 ± 8.8 mg.
Regarding `CCN1CC[C@@H]2[C@@H](c3ccc(C(=O)OC)cc3)c3cc(C)c(I)cc3[C@@H]2C1` [RTI-4587-073(d)], in test [2] (setting [5]), the Ki was found to be 67.3 µM.
With `CCN1CC[C@H]2[C@H](c3ccc(C(=O)OC)cc3)c3cc(C)c(I)cc3[C@H]2C1` [RTI-4587-073(l), (4aS, 5R, 9bS)-5-(4-Carbomethoxyphenyl)-2-ethyl-2,3,4,4a,5,9b-hexahydro-8-iodo-7-methyl-1H-indeno[1,2-c]pyridine], the affinity in test [2] (setting [5]) corresponds to a Ki of 0.32 µM. For the same compound, in test [3] (single oral dose 1 mg/kg, n=5), the “Spermatogenic Index” value is 2.92 ± 0.15 and the “Testes Weight” value is on record as 144 ± 4.9 mg.
Consider `CCN1CCC2C(C1)c1cc(I)c(C)cc1C2c1ccc(C(=O)O)cc1` (stereo not drawn) [RTI-4587-074(d)], for which the “in vivo activity (antispermatogenic)” value in test [1] (setting [6]) is “much greater in vivo activity”. The inhibition constant Ki was ~0.027 µM in test [2] (setting [5]) and 0.027 µM in test [2] (average Ki, 25° C., 2 hours, for 074(d) the Ki is a Kd, listed as 074(d)).
On to `C#Cc1cc2c(cc1C)[C@@H](c1ccc(C(=O)OC)cc1)[C@@H]1CCN(CC)C[C@H]21` [RTI-4587-107, (4aS, 5R, 9bS)-5-(4-Carbomethoxyphenyl)-2-ethyl-8-ethynyl-2,3,4,4a,5,9b-hexahydro-7-methyl-1H-indeno[1,2-c]pyridine], for which, in test [3] (single oral dose 20 mg/kg, n=5), the “Spermatogenic Index” value was determined as 1.56 ± 0.20 and the “Testes Weight” value turned out to be 134.4 ± 7.0 mg.
For `CCN1CC[C@H]2[C@H](c3ccc(C(=O)OC)cc3)c3cc(C)c(C#Cc4ccccc4)cc3[C@H]2C1` [RTI-4587-109, (4aS, 5R,9bS)-5-(4-Carbomethoxyphenyl)-2-ethyl-2,3,4,4a,5,9b-hexahydro-7-methyl-8-(2-phenylethynyl)-1H-indeno[1,2-c]pyridine], in that order: 4.26 ± 0.12 and 168.1 ± 16.4 mg.
For `CCN1CC[C@@H]2[C@@H](c3ccc(C)cc3)c3cc(C)ccc3[C@@H]2C1.Cl` [Sandoz 20-438], the inhibition of spermatogenesis result in the test with spermatogenesis is on record as “reversible inhibition of spermatogenesis”. In addition, in test [4], the “weights of the testes” value is listed as “drastically reducing”.

The record behind these values is patent publication US20090238760A1, “ANTISPERMATOGENIC, SPERMICIDAL AND/OR ANTIFUNGAL COMPOSITION AND METHODS OF USING THE SAME” (Research Triangle Institute, priority 2006, published 2009).
